In ChEMBL document CHEMBL3044568, “Synthesis, analgesic, anti-inflammatory, and in vitro antimicrobial activities of some novel quinazolin-4(3H)-one derivatives” (Med Chem Res, 2013):
Converted amounts (≈) assume the structure as drawn.

Columns and labels:
Pseudomonas aeruginosa = experiment: Antibacterial activity against Pseudomonas aeruginosa […] assessed as growth inhibition after 24 hr by agar streak dilution method; format: functional
Mus musculus [1] = experiment: Analgesic activity in Mus musculus […] albino (mouse) at 10 mg/kg, po measured at 2 hr by tail flick test (reference value: 6 +/- 0.84%)
Rattus norvegicus [2] = experiment: Anti-inflammatory activity in Rattus norvegicus Wistar (rat) assessed as protection against carrageenan-induced paw edema at 20 mg/kg, po measured at 1 hr by plethysmographic analysis (reference value: 6 +/- 0.63%); format: functional
Rattus norvegicus [3] = experiment: Anti-inflammatory activity in Rattus norvegicus Wistar (rat) assessed as protection against carrageenan-induced paw edema at 20 mg/kg, po measured at 2 hr by plethysmographic analysis (reference value: 5 +/- 0.41%); format: functional
Rattus norvegicus [4] = experiment: Anti-inflammatory activity in Rattus norvegicus Wistar (rat) assessed as protection against carrageenan-induced paw edema at 10 mg/kg, po measured at 3 hr by plethysmographic analysis (reference value: 4 +/- 0.75%); format: functional
Mus musculus [5] = experiment: Analgesic activity in Mus musculus […] albino (mouse) at 20 mg/kg, po measured at 30 min by tail flick test (reference value: 4 +/- 0.72%)
Klebsiella pneumoniae = experiment: Antibacterial activity against Klebsiella pneumoniae ATCC 11298 assessed as growth inhibition after 24 hr by agar streak dilution method; format: functional; conditions: ATCC 11298, 24 h
Mus musculus [6] = experiment: Analgesic activity in Mus musculus […] albino (mouse) at 10 mg/kg, po measured at 1 hr by tail flick test (reference value: 5 +/- 0.49%)
Mus musculus [7] = experiment: Analgesic activity in Mus musculus […] albino (mouse) at 10 mg/kg, po measured at 30 min by tail flick test (reference value: 4 +/- 0.72%)
Aspergillus fumigatus = experiment: Antifungal activity against Aspergillus fumigatus ATCC 46645 assessed as growth inhibition after 48 hr by agar streak dilution method; format: functional; conditions: ATCC 46645, 48 h
Staphylococcus aureus = experiment: Antibacterial activity against Staphylococcus aureus ATCC 9144 assessed as growth inhibition after 24 hr by agar streak dilution method; format: functional; conditions: ATCC 9144, 24 h
Escherichia coli = experiment: Antibacterial activity against Escherichia coli ATCC 25922 assessed as growth inhibition after 24 hr by agar streak dilution method; format: functional; conditions: ATCC 25922, 24 h
Rattus norvegicus [8] = experiment: Ulcerogenecity in Rattus norvegicus Wistar albino (rat) stomach assessed as ulcer index administered 20 mg/kg, ip qd for 3 days measured on day 4 relative to aspirin; format: ADME, organism-based; design: dose 20 mg/kg, route intraperitoneal; conditions: in vivo, 72 h
Mus musculus [9] = experiment: Analgesic activity in Mus musculus […] albino (mouse) at 10 mg/kg, po measured at 3 hr by tail flick test (reference value: 3 +/- 0.41%)
Rattus norvegicus [10] = experiment: Anti-inflammatory activity in Rattus norvegicus Wistar (rat) assessed as protection against carrageenan-induced paw edema at 10 mg/kg, po measured at 2 hr by plethysmographic analysis (reference value: 5 +/- 0.41%); format: functional
Rattus norvegicus [11] = experiment: Anti-inflammatory activity in Rattus norvegicus Wistar (rat) assessed as protection against carrageenan-induced paw edema at 10 mg/kg, po measured at 1 hr by plethysmographic analysis (reference value: 6 +/- 0.63%); format: functional
[12] = system: Staphylococcus epidermidis; experiment: Antibacterial activity against Staphylococcus epidermidis ATCC 155 assessed as growth inhibition after 24 hr by agar streak dilution method; format: functional; conditions: ATCC 155, 24 h
Mus musculus [13] = experiment: Analgesic activity in Mus musculus […] albino (mouse) at 20 mg/kg, po measured at 3 hr by tail flick test (reference value: 3 +/- 0.41%)
Micrococcus luteus = experiment: Antibacterial activity against Micrococcus luteus ATCC 4698 assessed as growth inhibition after 24 hr by agar streak dilution method; format: functional; conditions: ATCC 4698, 24 h
Mus musculus [14] = experiment: Analgesic activity in Mus musculus […] albino (mouse) at 20 mg/kg, po measured at 2 hr by tail flick test (reference value: 6 +/- 0.84%)
Rattus norvegicus [15] = experiment: Anti-inflammatory activity in Rattus norvegicus Wistar (rat) assessed as protection against carrageenan-induced paw edema at 20 mg/kg, po measured at 3 hr by plethysmographic analysis (reference value: 4 +/- 0.75%); format: functional
Rattus norvegicus [16] = experiment: Ulcerogenecity in Rattus norvegicus Wistar albino (rat) stomach assessed as ulcer index administered 20 mg/kg, ip qd for 3 days measured on day 4 relative to diclofenac; format: ADME, organism-based; design: dose 20 mg/kg, route intraperitoneal; conditions: in vivo, 72 h
Rattus norvegicus [17] = experiment: Anti-inflammatory activity in Rattus norvegicus Wistar (rat) assessed as protection against carrageenan-induced paw edema at 20 mg/kg, po measured at 30 min by plethysmographic analysis (reference value: 4 +/- 0.28%); format: functional
Mus musculus [18] = experiment: Analgesic activity in Mus musculus […] albino (mouse) at 20 mg/kg, po measured at 1 hr by tail flick test (reference value: 5 +/- 0.49%)
Aspergillus niger = experiment: Antifungal activity against Aspergillus niger ATCC 9029 assessed as growth inhibition after 48 hr by agar streak dilution method; format: functional; conditions: ATCC 9029, 48 h
Bacillus cereus = experiment: Antibacterial activity against Bacillus cereus ATCC 11778 assessed as growth inhibition after 24 hr by agar streak dilution method; format: functional; conditions: ATCC 11778, 24 h
Rattus norvegicus [19] = experiment: Ulcerogenecity in Rattus norvegicus Wistar albino (rat) stomach assessed as ulcer index administered 20 mg/kg, ip qd for 3 days measured on day 4 (reference value: 0.13 +/- 0.05 no unit); format: ADME, organism-based; design: dose 20 mg/kg, route intraperitoneal; conditions: in vivo, 72 h
Rattus norvegicus [20] = experiment: Anti-inflammatory activity in Rattus norvegicus Wistar (rat) assessed as protection against carrageenan-induced paw edema at 10 mg/kg, po measured at 30 min by plethysmographic analysis (reference value: 4 +/- 0.28%); format: functional

Structure (SMILES)	MIC (Pseudomonas aeruginosa) [µg/mL]	Activity (Mus musculus [1]) [%]	Activity (Rattus norvegicus [2]) [%]	Activity (Rattus norvegicus [3]) [%]	Activity (Rattus norvegicus [4]) [%]	Activity (Mus musculus [5]) [%]	MIC (Klebsiella pneumoniae) [µg/mL]	Activity (Mus musculus [6]) [%]	Activity (Mus musculus [7]) [%]	MIC (Aspergillus fumigatus) [µg/mL]	MIC (Staphylococcus aureus) [µg/mL]	MIC (Escherichia coli) [µg/mL]	Activity (Mus musculus [9]) [%]	Activity (Rattus norvegicus [10]) [%]	Activity (Rattus norvegicus [11]) [%]	MIC [12] [µg/mL]	Activity (Mus musculus [13]) [%]	MIC (Micrococcus luteus) [µg/mL]	Activity (Mus musculus [14]) [%]	Activity (Rattus norvegicus [15]) [%]	also measured
Cc1nc2ccccc2c(=O)n1-c1ccc(NC(=O)CN/N=C/c2ccc(O)cc2)cc1	125 (≈ 292 µM)	34	39	43	22	36	125 (≈ 292 µM)	30	23	62.5 (≈ 146 µM)	125 (≈ 292 µM)	125 (≈ 292 µM)	20	28	25	125 (≈ 292 µM)	26	62.5 (≈ 146 µM)	47	29	UI (Rattus norvegicus [8]): 31%; UI (Rattus norvegicus [16]): 34%; Activity (Rattus norvegicus [17]): 30%; Activity (Mus musculus [18]): 43%; MIC (Aspergillus niger): 125 µg/mL (≈ 292 µM); MIC (Bacillus cereus): 125 µg/mL (≈ 292 µM); UI (Rattus norvegicus [19]): 0.82 no unit; Activity (Rattus norvegicus [20]): 21%
Cc1nc2ccccc2c(=O)n1-c1ccc(NC(=O)CN/N=C\c2c[nH]c3ccccc23)cc1	15.6 (≈ 34.7 µM)	29	36	41	21	30	15.6 (≈ 34.7 µM)	25	19	62.5 (≈ 139 µM)	62.5 (≈ 139 µM)	62.5 (≈ 139 µM)	18	29	23	31.2 (≈ 69.4 µM)	20	31.2 (≈ 69.4 µM)	41	32	UI (Rattus norvegicus [8]): 31%; UI (Rattus norvegicus [16]): 34%; Activity (Rattus norvegicus [17]): 28%; Activity (Mus musculus [18]): 35%; MIC (Aspergillus niger): 31.2 µg/mL (≈ 69.4 µM); MIC (Bacillus cereus): 31.2 µg/mL (≈ 69.4 µM); UI (Rattus norvegicus [19]): 0.72 no unit; Activity (Rattus norvegicus [20]): 20%
Cc1ccc(/C=N\NCC(=O)Nc2ccc(-n3c(C)nc4ccccc4c3=O)cc2)o1	31.2 (≈ 75.2 µM)	27	35	39	23	29	62.5 (≈ 150 µM)	24	17	62.5 (≈ 150 µM)	62.5 (≈ 150 µM)	62.5 (≈ 150 µM)	19	30	25	62.5 (≈ 150 µM)	21	125 (≈ 301 µM)	38	30	UI (Rattus norvegicus [8]): 31%; UI (Rattus norvegicus [16]): 34%; Activity (Rattus norvegicus [17]): 31%; Activity (Mus musculus [18]): 33%; MIC (Aspergillus niger): 125 µg/mL (≈ 301 µM); MIC (Bacillus cereus): 62.5 µg/mL (≈ 150 µM); UI (Rattus norvegicus [19]): 0.77 no unit; Activity (Rattus norvegicus [20]): 19%
O=C(O)c1cn(C2CC2)c2cc(N3CCNCC3)c(F)cc2c1=O [CIPROFLOXACIN]	7.81 (≈ 23.6 µM)						3.9 (≈ 11.8 µM)				15.6 (≈ 47.1 µM)	15.6 (≈ 47.1 µM)				7.81 (≈ 23.6 µM)		7.81 (≈ 23.6 µM)			MIC (Bacillus cereus): 7.81 µg/mL (≈ 23.6 µM)
O=C([O-])Cc1ccccc1Nc1c(Cl)cccc1Cl.[Na+] [DICLOFENAC SODIUM]		49	51	60	29	47		44	34				32	42	36		41		64	43	Activity (Rattus norvegicus [17]): 40%; Activity (Mus musculus [18]): 55%; Activity (Rattus norvegicus [20]): 31%
CC(=O)N1CCN(c2ccc(OCC3COC(Cn4ccnc4)(c4ccc(Cl)cc4Cl)O3)cc2)CC1 (centres undefined) [KETOCONAZOLE]										7.81 (≈ 14.7 µM)											MIC (Aspergillus niger): 15.6 µg/mL (≈ 29.4 µM)
